Consider four cell lines from the supplement of paper PMC10307832.

What all share (assay): relative viability (nuclei count vs DMSO), 5 days (fraction); higher = more cells survive
Compound in experiment [1]: O=C(Nc1cc(C(F)(F)F)cc(C(F)(F)F)c1)c1cc(Cl)ccc1O [IMD-0354] + N=C(N)NC(=N)NCCc1ccccc1 [Phenformin] (partner 250 µM)
An outline of the steps:
(§1)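 After 5 days of treatment, lung cancer cells in 1536-well plates were fixed and stained in a single step (final 0.05% Triton X-100, 1% formaldehyde, 1 ug/ml Hoechst) and their nuclei counted on 4× images. Treatment had been applied by pin tool the day after seeding as one drug alone or as a fixed anchor-drug dose with five library-drug doses (not always all listed) in √10 steps. Relative viability is the nuclei count of treated wells divided by that of vehicle wells, and values are medians of duplicate plates.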

Compound in experiment [2]: O=C(Nc1cc(C(F)(F)F)cc(C(F)(F)F)c1)c1cc(Cl)ccc1O [IMD-0354] + Cc1cc(Nc2cc(N3CCN(C)CC3)nc(Sc3ccc(NC(=O)C4CC4)cc3)n2)n[nH]1 [Tozasertib] (partner 0.1 µM)
An outline of the steps: as §1

Compound in experiment [3]: O=C(Nc1cc(C(F)(F)F)cc(C(F)(F)F)c1)c1cc(Cl)ccc1O [IMD-0354] + CC(=O)c1c(C)c2cnc(Nc3ccc(N4CCNCC4)cn3)nc2n(C2CCCC2)c1=O [Palbociclib] (partner 0.5 µM)
An outline of the steps:
as §1

Compound in experiment [4]: O=C(Nc1cc(C(F)(F)F)cc(C(F)(F)F)c1)c1cc(Cl)ccc1O [IMD-0354] + Cc1nc(NC(=O)N2CCC[C@H]2C(N)=O)sc1-c1ccnc(C(C)(C)C(F)(F)F)c1 [Alpelisib] (partner 2 µM)
An outline of the steps:
as §1

Regarding NCI-H1355, the relative viability was 0.437 in experiment [1] (first compound 0.04 µM); 0.415 in experiment [1] (first compound 0.1265 µM); 0.432 in experiment [1] (first compound 0.4 µM); 0.24 in experiment [1] (first compound 1.265 µM); 0.236 in experiment [1] (first compound 4 µM); 0.598 in experiment [2] (first compound 0.04 µM). Besides, the relative viability turned out to be 0.528 in experiment [2] (first compound 0.1265 µM); 0.594 in experiment [2] (first compound 0.4 µM); 0.271 in experiment [2] (first compound 1.265 µM); 0.258 in experiment [2] (first compound 4 µM); 0.385 in experiment [3] (first compound 0.04 µM); 0.41 in experiment [3] (first compound 0.1265 µM). Besides, the relative viability came out at 0.378 in experiment [3] (first compound 0.4 µM); 0.195 in experiment [3] (first compound 1.265 µM); 0.253 in experiment [3] (first compound 4 µM); 1.07 in experiment [4] (first compound 0.04 µM); 0.692 in experiment [4] (first compound 0.1265 µM); 0.736 in experiment [4] (first compound 0.4 µM). The relative viability in experiment [4] (first compound 1.265 µM) stood at 0.561; in experiment [4] (first compound 4 µM), 0.222.
Take NCI-H1395: the relative viability in experiment [1] (first compound 0.04 µM) was 0.489; in experiment [1] (first compound 0.1265 µM) it was 0.452; in experiment [1] (first compound 0.4 µM), 0.382; in experiment [1] (first compound 1.265 µM) it was 0.313; in experiment [1] (first compound 4 µM) it was 0.267; in experiment [2] (first compound 0.04 µM), 0.753. The relative viability in experiment [2] (first compound 0.1265 µM) was 0.721; in experiment [2] (first compound 0.4 µM), 0.683; in experiment [2] (first compound 1.265 µM), 0.453; in experiment [2] (first compound 4 µM), 0.344; in experiment [3] (first compound 0.04 µM), 0.679; in experiment [3] (first compound 0.1265 µM) it was 0.682. Further, the relative viability in experiment [3] (first compound 0.4 µM) was determined as 0.656; in experiment [3] (first compound 1.265 µM), 0.397; in experiment [3] (first compound 4 µM), 0.418; in experiment [4] (first compound 0.04 µM), 0.992; in experiment [4] (first compound 0.1265 µM), 0.889; in experiment [4] (first compound 0.4 µM), 0.98. In addition, the relative viability in experiment [4] (first compound 1.265 µM) amounted to 0.465; in experiment [4] (first compound 4 µM), 0.324.
With NCI-H1437, the relative viability worked out at 0.317 in experiment [1] (first compound 0.04 µM); 0.279 in experiment [1] (first compound 0.1265 µM); 0.195 in experiment [1] (first compound 0.4 µM); 0.15 in experiment [1] (first compound 1.265 µM); 0.2 in experiment [1] (first compound 4 µM); 0.457 in experiment [2] (first compound 0.04 µM). Further, the relative viability in experiment [2] (first compound 0.1265 µM) is 0.394; in experiment [2] (first compound 0.4 µM) it was 0.289; in experiment [2] (first compound 1.265 µM), 0.262; in experiment [2] (first compound 4 µM), 0.224; in experiment [3] (first compound 0.04 µM), 0.338; in experiment [3] (first compound 0.1265 µM) it was 0.29. In addition, the relative viability in experiment [3] (first compound 0.4 µM) is 0.166; in experiment [3] (first compound 1.265 µM), 0.141; in experiment [3] (first compound 4 µM), 0.162; in experiment [4] (first compound 0.04 µM) it was 1.24; in experiment [4] (first compound 0.1265 µM), 1.07; in experiment [4] (first compound 0.4 µM), 0.711. For the same cell line, the figures for the relative viability in experiment [4] (first compound 1.265 µM) and in experiment [4] (first compound 4 µM) were 0.219 and 0.239, respectively.
Regarding NCI-H1651, the relative viability in experiment [1] (first compound 0.04 µM) was 0.35; in experiment [1] (first compound 0.1265 µM) it was 0.22; in experiment [1] (first compound 0.4 µM), 0.198; in experiment [1] (first compound 1.265 µM) it was 0.106; in experiment [1] (first compound 4 µM), 0.0771; in experiment [2] (first compound 0.04 µM), 0.662. The relative viability turned out to be 0.658 in experiment [2] (first compound 0.1265 µM); 0.317 in experiment [2] (first compound 0.4 µM); 0.363 in experiment [2] (first compound 1.265 µM); 0.0982 in experiment [2] (first compound 4 µM); 0.504 in experiment [3] (first compound 0.04 µM); 0.507 in experiment [3] (first compound 0.1265 µM). The relative viability was 0.415 in experiment [3] (first compound 0.4 µM); 0.516 in experiment [3] (first compound 1.265 µM); 0.182 in experiment [3] (first compound 4 µM); 1.17 in experiment [4] (first compound 0.04 µM); 0.987 in experiment [4] (first compound 0.1265 µM); 0.584 in experiment [4] (first compound 0.4 µM). Moreover, the relative viability in experiment [4] (first compound 1.265 µM) was 0.266; in experiment [4] (first compound 4 µM), 0.0691.
